Experiments:
Conditions in all cases: lowest concentration inhibiting 95% of growth (OD600); with BLi relebactam 4 μg/mL; 22 hours, 35±2° C.
[1] = test system: Pseudomonas aeruginosa expressing AmpC (CL5701); experiment: Growth inhibitory concentration (OD600), P. aeruginosa CL5701; format: cell-based
Description: (§1) The concentrations of compounds required to inhibit the growth of various strains of bacteria were determined in an assay that assessed bacterial growth by measuring optical density at 600 nm (OD600). The bacterial strains tested included the clinical strains Escherichia co/i expressing NDM-1 (CLB30016), Klebsiella pneumoniae expressing KPC-1 (CL6569), Acinetobacter baumannii expressing TEM-1, AmpC, and Oxa-24/40 (CL6188) and Pseudomonas aeruginosa expressing AmpC (CL5701). All compounds were tested in the presence of a f3 lactamase inhibitor (BLi, Relebactam) in 384-well microplates.
(§2) The clinical strains were stored as frozen single use stocks, thawed and diluted into 1.1× cation-adjusted Mueller-Hinton 11 broth to achieve approximately 2×10^5 CFU/mL. Test compounds were dissolved in DMSO and diluted 1:50 in the assay, resulting in a final concentration range of 100 μM to 0.098 μM. On the day of the assay, 1 μL of test compound was added to the plate followed by 4 μL of 50 μg/mL BLi in MOPS buffer and 45 μL of diluted bacteria. Plates were centrifuged at 1000 rpm for 30 seconds, shaken at approximately 800 rpm for 1 minute, and incubated at 35±2° C. for 22 hours. The concentration of BLi used in the assay was 4 μg/mL. At the end of the incubation, absorbance at 600 nm was determined using a spectrophotometer. Inhibition was quantitated by identifying the lowest concentration of test compound that was required to inhibit […] of the growth of the bacteria.

[2] = test system: Klebsiella pneumoniae expressing KPC-1 (CL6569); experiment: Growth inhibitory concentration (OD600), K. pneumoniae CL6569; format: cell-based
Description: as §1, §2

[3] = test system: Escherichia co/i expressing NDM-1 (CLB30016); experiment: Growth inhibitory concentration (OD600), E. coli CLB30016; format: cell-based, Escherichia coli
Description: as §1, §2

[4] = test system: Acinetobacter baumannii expressing TEM-1, AmpC, and Oxa-24/40 (CL6188); format: cell-based
Description: as §1, §2

Compound | PA_CL5701 MITC95 [1] [µM] | KP_CL6569 MITC95 [2] [µM] | EC_CLB30016 MITC95 [3] [µM] | AB_CL6188 MITC95 [4] [µM]
CC1(C)[C@H](NC(=O)/C(=N\O[C@](C)(C(=O)O)[C@H]2CCc3cc(C(=N)N[C@H]4C[C@](CN)(CO)C4)ccc3O2)c2csc(N)n2)C(=O)N1OS(=O)(=O)O [Compound 78, (S)-2-((R)-6-(N-((1r,3R)-3-(aminomethyl)-3-(hydroxymethyl)cyclobutyl)carbamimidoyl)chroman-2-yl)-2-((((Z)-1-(2-aminothiazol-4-yl)-2-(((S)-2,2-dimethyl-4-oxo-1-(sulfooxy)azetidin-3-yl)amino)-2-oxoethylidene)amino)oxy)propanoic acid] | 1.563 | 0.3906 | 6.25 | 4.688
CC1(C)[C@H](NC(=O)/C(=N\O[C@](C)(C(=O)O)[C@H]2CCc3cc(C(=N)N[C@H]4C[C@H]5CC[C@@H](C4)N5)ccc3O2)c2csc(N)n2)C(=O)N1OS(=O)(=O)O [Compound 136, (S)-2-((R)-6-(N-((1R,3r,5S)-8-azabicyclo[3.2.1]octan-3-yl)carbamimidoyl)chroman-2-yl)-2-((((Z)-1-(2-aminothiazol-4-yl)-2-(((S)-2,2-dimethyl-4-oxo-1-(sulfooxy)azetidin-3-yl)amino)-2-oxoethylidene)amino)oxy)propanoic acid] | 1.563 | 0.7813 |  | 6.25
CC1(C)[C@H](NC(=O)/C(=N\O[C@](C)(C(=O)O)[C@H]2CCc3cc(C(=N)NC4CC5(CC(N)C5)C4)ccc3O2)c2csc(N)n2)C(=O)N1OS(=O)(=O)O (stereo partly drawn) [Compound 61, (S)-2-((R)-6-(N-((2R,4r,6R)-6-aminospiro[3.3]heptan-2-yl)carbamimidoyl)chroman-2-yl)-2-((((Z)-1-(2-aminothiazol-4-yl)-2-(((S)-2,2-dimethyl-4-oxo-1-(sulfooxy)azetidin-3-yl)amino)-2-oxoethylidene)amino)oxy)propanoic acid] | 1.563 | 0.3906 |  | 6.25
CC1(C)[C@H](NC(=O)/C(=N\O[C@](C)(C(=O)O)[C@H]2CCc3cc(C(=N)NC4CC(N)(C[C@H](O)CO)C4)ccc3O2)c2csc(N)n2)C(=O)N1OS(=O)(=O)O (stereo partly drawn) [Compound 94, (S)-2-((R)-6-(N-((1S,3R)-3-amino-3-((S)-2,3-dihydroxypropyl)cyclobutyl)carbamimidoyl)chroman-2-yl)-2-((((Z)-1-(2-aminothiazol-4-yl)-2-(((S)-2,2-dimethyl-4-oxo-1-(sulfooxy)azetidin-3-yl)amino)-2-oxoethylidene)amino)oxy)propanoic acid] |  | 0.3906 | 3.125 | 6.25
CC1(C)[C@H](NC(=O)/C(=N\O[C@](C)(C(=O)O)[C@H]2CCc3cc(C(=N)NC4CCC(N)(CO)CC4)ccc3O2)c2csc(N)n2)C(=O)N1OS(=O)(=O)O (stereo partly drawn) [Compound 70, (S)-2-((R)-6-(N-((1s,4S)-4-amino-4-(hydroxymethyl)cyclohexyl)carbamimidoyl)chroman-2-yl)-2-((((Z)-1-(2-aminothiazol-4-yl)-2-(((S)-2,2-dimethyl-4-oxo-1-(sulfooxy)azetidin-3-yl)amino)-2-oxoethylidene)amino)oxy)propanoic acid] |  | 0.293 |  | 4.688
COC[C@]1(NC(=N)c2ccc3c(c2)CC[C@H]([C@](C)(O/N=C(\C(=O)N[C@@H]2C(=O)N(OS(=O)(=O)O)C2(C)C)c2csc(N)n2)C(=O)O)O3)CC[C@H](N)CC1 [Compound 127, (S)-2-((R)-6-(N-((1r,4R)-4-amino-1-(methoxymethyl)cyclohexyl)carbamimidoyl)chroman-2-yl)-2-((((Z)-1-(2-aminothiazol-4-yl)-2-(((S)-2,2-dimethyl-4-oxo-1-(sulfooxy)azetidin-3-yl)amino)-2-oxoethylidene)amino)oxy)propanoic acid] |  | 0.7813 | 6.25 | 12.5
CC1(C)[C@H](NC(=O)/C(=N\O[C@](C)(C(=O)O)[C@H]2CCc3cc(C(=N)N[C@H]4C[C@@]5(CCNC5)C4)ccc3O2)c2csc(N)n2)C(=O)N1OS(=O)(=O)O [Compound 23, (S)-2-((R)-6-(N-((2s,4R)-6-azaspiro[3.4]octan-2-yl)carbamimidoyl)chroman-2-yl)-2-((((Z)-1-(2-aminothiazol-4-yl)-2-(((S)-2,2-dimethyl-4-oxo-1-(sulfooxy)azetidin-3-yl)amino)-2-oxoethylidene)amino)oxy)propanoic acid] |  | 0.7813 | 6.25 | 6.25
COC[C@]1(NC(=N)c2ccc3c(c2)CC[C@H]([C@](C)(O/N=C(\C(=O)N[C@@H]2C(=O)N(OS(=O)(=O)O)C2(C)C)c2csc(N)n2)C(=O)O)O3)CC[C@@H](N)CC1 [Compound 126, (S)-2-((R)-6-(N-((1s,4S)-4-amino-1-(methoxymethyl)cyclohexyl)carbamimidoyl)chroman-2-yl)-2-((((Z)-1-(2-aminothiazol-4-yl)-2-(((S)-2,2-dimethyl-4-oxo-1-(sulfooxy)azetidin-3-yl)amino)-2-oxoethylidene)amino)oxy)propanoic acid] |  | 1.563 | 25 | 12.5
CC1(C)[C@H](NC(=O)/C(=N\O[C@](C)(C(=O)O)[C@H]2CCc3cc(C(=N)N[C@H]4C[C@@](N)(C[C@@H](O)CO)C4)ccc3O2)c2csc(N)n2)C(=O)N1OS(=O)(=O)O [Compound 95, (S)-2-((R)-6-(N-((1R,3R)-3-amino-3-((R)-2,3-dihydroxypropyl)cyclobutyl)carbamimidoyl)chroman-2-yl)-2-((((Z)-1-(2-aminothiazol-4-yl)-2-(((S)-2,2-dimethyl-4-oxo-1-(sulfooxy)azetidin-3-yl)amino)-2-oxoethylidene)amino)oxy)propanoic acid] |  | 0.3906 | 6.25 | 6.25
COCc1c(C(=N)N[C@H]2C[C@@H](N)C2)ccc2c1CC[C@H]([C@](C)(O/N=C(\C(=O)N[C@@H]1C(=O)N(OS(=O)(=O)O)C1(C)C)c1csc(N)n1)C(=O)O)O2 [Compound 124, (S)-2-((R)-6-(N-((1s,3S)-3-aminocyclobutyl)carbamimidoyl)-5-(methoxymethyl)chroman-2-yl)-2-((((Z)-1-(2-aminothiazol-4-yl)-2-(((S)-2,2-dimethyl-4-oxo-1-(sulfooxy)azetidin-3-yl)amino)-2-oxoethylidene)amino)oxy)propanoic acid] |  | 1.563 | 50 | 12.5
CC1(C)[C@H](NC(=O)/C(=N\O[C@](C)(C(=O)O)[C@H]2CCc3cc(C(=N)N[C@H]4C[C@@H](N)C4)ccc3O2)c2csc(N)n2)C(=O)N1OS(=O)(=O)O [Compound 7, (S)-2-((R)-6-(N-((1 s,3 S)-3-aminocyclobutyl)carbamimidoyl)chroman-2-yl)-2-((((Z)-1-(2-aminothiazol-4-yl)-2-(((S)-2,2-dimenthyl-4-oxo-1-(sulfooxy)azetidin-3-yl)amino)-2-oxoethylidene)amino)oxy)propanoic acid] |  | 0.3906 | 4.688 | 5.729
CC1(C)[C@H](NC(=O)/C(=N\O[C@](C)(C(=O)O)[C@H]2CCc3cc(C(=N)N[C@]4(C)CC[C@](N)(CO)CC4)ccc3O2)c2csc(N)n2)C(=O)N1OS(=O)(=O)O [Compound 135, (S)-2-((R)-6-(N-((1r,4R)-4-amino-4-(hydroxymethyl)-1-methylcyclohexyl)-carbamimidoyl)chroman-2-yl)-2-((((Z)-1-(2-aminothiazol-4-yl)-2-(((S)-2,2-dimethyl-4-oxo-1-(sulfooxy)azetidin-3-yl)amino)-2-oxoethylidene)amino)oxy)propanoic acid] | 3.125 | 0.7813 |  | 12.5
COCC[C@]1(N)CC[C@H](NC(=N)c2ccc3c(c2)CC[C@H]([C@](C)(O/N=C(\C(=O)N[C@@H]2C(=O)N(OS(=O)(=O)O)C2(C)C)c2csc(N)n2)C(=O)O)O3)CC1 [Compound 64, (S)-2-((R)-6-(N-((1r,4R)-4-amino-4-(2-methoxyethyl)cyclohexyl)carbamimidoyl)chroman-2-yl)-2-((((Z)-1-(2-aminothiazol-4-yl)-2-(((S)-2,2-dimethyl-4-oxo-1-(sulfooxy)azetidin-3-yl)amino)-2-oxoethylidene)amino)oxy)propanoic acid] | 3.125 | 0.7813 |  | 6.25

Source: patent US20250019376A1, “CHROMANE AMIDINE MONOBACTAM ANTIBIOTICS” (priority 2021, published 2025)
